Results on 5 compounds are retold here after ChEMBL document CHEMBL1201862, “PubChem BioAssay data set” (2004).

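Compound exposure: 48 hours, 5 concentrations, 96-well plates. At the GI50, growth is halved.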 The source made the active and inactive calls. Rule as the data show it: active = GI50 up to about 1.1 µM and inactive = higher.

Common to all, as to test: NCI-60 cell line screen, 48 h
Assay [1] has as its system NCI-H522.
The test system of assay [2] is SR.
Assay [3] relates to RPMI-8226.
The subject of assay [4] is SF-268.
Assay [5] has as its system UO-31.
In assay [6] the test system is SK-MEL-28.
Assay [7] concerns MOLT-4.
Assay [8] concerns COLO 205.
For assay [9], the system named is HCT-116.
Assay [10] deals with SNB-75.
Assay [11] concerns SW-620.
Assay [12] concerns NCI-H226.
The subject of assay [13] is SNB-19.
The subject of assay [14] is HCC 2998.
For assay [15], the system named is SF-295.
Assay [16] concerns UACC-62.

Regarding `C/C(=C\CC/C=C(\C)CC/C=C(\C)CCC1SC1(C)C)CC/C=C(\C)CCC1OC1(C)C` (centres undefined), the GI50 in assay [1] is 47.3 µM (inactive); in [2], > 100 µM (inactive); in assay [3] it was > 100 µM (inactive); in [4], > 100 µM (inactive); in [5] it was > 100 µM (inactive); in [6], > 100 µM (inactive). Moreover, the GI50 in [7] is > 100 µM (inactive); in assay [8] it was > 100 µM (inactive); in [9] it was 78 µM (inactive); in [10], > 100 µM (inactive); in assay [11], > 100 µM (inactive); in assay [12], > 100 µM (inactive). The GI50 in [13], in assay [14] and in assay [15] was > 100 µM (inactive) in each case.
For the compound `CN(C)C(=O)NC(=S)N(C)C`, the GI50 in assay [1], in assay [2], in [3], in assay [4], in [5] and in assay [6] was > 100 µM (inactive) throughout. Besides, the GI50 is > 100 µM (inactive) in [7]; > 100 µM (inactive) in assay [16]; > 100 µM (inactive) in assay [9]; > 100 µM (inactive) in [10]; > 100 µM (inactive) in [11]; 55.1 µM (inactive) in assay [12]. For the same compound, the GI50 in [13], in [14] and in assay [15] was > 100 µM (inactive) throughout.
As to `Cc1nccc2c1cnc1ccnn12`, the GI50 in [1], in [2], in [3], in assay [4], in assay [5] and in assay [6] was > 100 µM (inactive) in each case. Also, the GI50 in assay [7], in assay [8], in assay [9], in [10], in assay [11] and in assay [12] was > 100 µM (inactive) each time. Besides, the GI50 in assay [13] and in assay [14] was > 100 µM (inactive) throughout.
Take `CC(=O)OC12c3ccccc3C1CCCCCC21OCCCO1` (centres undefined): the GI50 in [1], in [2], in [3], in [4], in assay [5] and in assay [6] was > 100 µM (inactive) each time. Moreover, the GI50 in [7], in assay [8], in assay [16], in [9], in assay [10] and in assay [12] was > 100 µM (inactive) throughout. For the same compound, the GI50 in assay [13], in assay [14] and in assay [15] was > 100 µM (inactive) throughout.
Regarding `CCOc1ccc2[nH]c3c(C)c4ccncc4c(C)c3c2c1`, the GI50 is 1.45 µM (inactive) in [1]; 0.37 µM (active) in assay [2]; 1.36 µM (inactive) in [3]; 1.18 µM (inactive) in [4]; 2.91 µM (inactive) in [5]; 1.91 µM (inactive) in assay [6]. In addition, the GI50 in assay [7] was 0.426 µM (active); in assay [8], 1.21 µM (inactive); in [9] it was 0.486 µM (active); in assay [10], 1.71 µM (inactive); in assay [11], 0.466 µM (active); in assay [12], 1.82 µM (inactive). The GI50 in assay [13] is 1.45 µM (inactive); in assay [14], 1.42 µM (inactive); in assay [15] it was 1.02 µM (active).
